Data published in patent US8106055B2, “Substituted amide compounds” (Gruenenthal GmbH, priority 2007, dated 2012).

What was measured:
[1] = target: T1, human bradykinin 1 receptor (B1R) (Homo sapiens, UniProt P46663); assay: Functional investigation on the human bradykinin 1 receptor (B1R), Ca2+ FLIPR assay in CHO K1 hB1R cells; assay type: cell-based; conditions: CHO-K1, B1R antagonism human; test substance 10 μM; Ca2+ FLIPR, CHO K1 hB1R cells; read-out: B1R Ant. h [10 μM] % Inhibition
T1 construct: expressed in transfected cells; host or cells: CHO K1 cells
T1 sequence (P46663 1-353): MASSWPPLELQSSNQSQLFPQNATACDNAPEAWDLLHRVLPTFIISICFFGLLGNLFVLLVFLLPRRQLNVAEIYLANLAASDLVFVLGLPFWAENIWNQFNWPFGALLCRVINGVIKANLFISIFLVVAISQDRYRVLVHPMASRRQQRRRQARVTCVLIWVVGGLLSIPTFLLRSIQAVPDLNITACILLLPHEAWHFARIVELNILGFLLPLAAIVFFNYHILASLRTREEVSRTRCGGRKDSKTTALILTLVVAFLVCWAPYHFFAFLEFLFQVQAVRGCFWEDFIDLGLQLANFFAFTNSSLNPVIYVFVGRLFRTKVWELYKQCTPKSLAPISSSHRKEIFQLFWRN
In short: (§1)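 Stably transfected CHO K1 cells loaded with Fluo-4; FLIPR Ca2+ fluorescence peak (ex 488/em 540 nm). Compound added first (agonism vs Lys-Des-Arg9-bradykinin ≥50 nM human, Des-Arg9-bradykinin 10 μM rat), then after 10-20 min agonist at EC80; antagonism as % inhibition, IC50 from concentration series, n=2-3, N≥2.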

human μ opiate receptor = target: T2, human μ opiate receptor (Homo sapiens, UniProt P35372); assay: Affinity for the human μ opiate receptor ([3H]-naloxone displacement, CHO-K1 receptor membrane preparation, SPA); assay type: binding; conditions: 1.5 h, Table 3, to be read in the same way as Table 1; test concentration 1 μM; read-out: μ
T2 construct: purchased PerkinElmer Life Sciences, Zaventem, Belgium RB-HOM; host or cells: CHO-K1 cells (membrane preparation)
T2 sequence (P35372 whole entry): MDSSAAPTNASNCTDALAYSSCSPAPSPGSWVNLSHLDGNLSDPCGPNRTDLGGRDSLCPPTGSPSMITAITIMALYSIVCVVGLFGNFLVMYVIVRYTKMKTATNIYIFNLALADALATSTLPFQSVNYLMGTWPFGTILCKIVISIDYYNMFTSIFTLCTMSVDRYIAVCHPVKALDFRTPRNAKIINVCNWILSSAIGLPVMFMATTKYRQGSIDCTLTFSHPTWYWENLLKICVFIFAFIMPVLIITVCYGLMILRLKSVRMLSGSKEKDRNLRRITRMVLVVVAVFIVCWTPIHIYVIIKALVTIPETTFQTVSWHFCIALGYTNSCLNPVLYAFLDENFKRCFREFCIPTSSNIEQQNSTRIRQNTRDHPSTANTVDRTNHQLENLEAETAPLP
In short: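 CHO-K1 membranes expressing human μ receptor incubated 90 min at room temperature with 1 nmol/l [3H]-naloxone and WGA-SPA beads in 50 mmol/l Tris-HCl, 0.06% BSA; 100 μmol/l naloxone defines non-specific binding. Values are % inhibition of specific binding at 1 μM; IC50 converted to Ki by Cheng-Prusoff.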

[2] = target: T3, bradykinin 1 receptor (B1R) of the rat (Rattus norvegicus, UniProt P97583); assay: Functional investigation on the rat bradykinin 1 receptor (B1R), Ca2+ FLIPR assay in CHO K1 rB1R cells; assay type: cell-based; conditions: CHO-K1, B1R antagonism rat; test substance 10 μM; Ca2+ FLIPR, CHO K1 rB1R cells; read-out: B1R Ant. r [10 μM] % Inhibition
T3 construct: expressed in transfected cells; host or cells: CHO K1 cells
T3 sequence (P97583 1-337): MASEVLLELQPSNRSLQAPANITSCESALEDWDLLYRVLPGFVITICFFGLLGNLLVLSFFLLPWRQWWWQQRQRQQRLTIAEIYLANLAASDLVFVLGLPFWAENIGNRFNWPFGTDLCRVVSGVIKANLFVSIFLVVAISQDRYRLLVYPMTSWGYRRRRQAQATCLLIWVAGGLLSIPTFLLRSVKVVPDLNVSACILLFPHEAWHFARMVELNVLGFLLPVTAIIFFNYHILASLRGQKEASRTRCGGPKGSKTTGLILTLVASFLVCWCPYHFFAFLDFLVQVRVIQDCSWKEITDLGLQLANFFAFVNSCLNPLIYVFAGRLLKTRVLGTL
In short: as §1

Structure (SMILES) | inhibition at 10 µM [1] | inhibition at 1 µM (human μ opiate receptor) | inhibition at 10 µM [2]
COc1cc(C)c(S(=O)(=O)N2CCCC(OCC(=O)NCC3CCC(C(CCc4ccccc4)N4CCCC4)CC3)C2)c(C)c1 (stereo not drawn) [Example 731, 2-(1-(4-methoxy-2,6-dimethylphenylsulfonyl)piperidin-3-yloxy)-N-((4-(3-phenyl-1-(pyrrolidin-1-yl)propyl)cyclohexyl)methyl)acetamide] | 101% | 49% | 80%
CN1CCN(C(c2ccccc2)C2CCC(NC(=O)COCC3CCCN3S(=O)(=O)c3c(Cl)cc(Cl)cc3Cl)CC2)CC1 (stereo not drawn) [Example 732, N-(4-((4-methylpiperazin-1-yl)(phenyl)methyl)cyclohexyl)-2-((1-(2,4,6-trichlorophenylsulfonyl)pyrrolidin-2-yl)methoxy)acetamide] | 100% | 61% | 84%
COc1cc(C)c(S(=O)(=O)N2CCCCC2COCC(=O)NC2CCC(C(CCc3ccccc3)N3CCOCC3)CC2)c(C)c1 (stereo not drawn) [Example 733, 2-((1-(4-methoxy-2,6-dimethylphenylsulfonyl)piperidin-2-yl)methoxy)-N-(4-(1-morpholino-3-phenylpropyl)cyclohexyl)acetamide] | 87% | 21% | 100%
COc1cc(C)c(S(=O)(=O)N2CCCCC2COCC(=O)NC2CCC(C(CCc3ccccc3)N3CCCCC3)CC2)c(C)c1 (stereo not drawn) [Example 734, 2-((1-(4-methoxy-2,6-dimethylphenylsulfonyl)piperidin-2-yl)methoxy)-N-(4-(3-phenyl-1-(piperidin-1-yl)propyl)cyclohexyl)acetamide] | 104% | 80% | 104%
COc1cc(C)c(S(=O)(=O)N2CCCCC2COCC(=O)NC2CCC(C(c3ccccc3)N3CCN(C)CC3)CC2)c(C)c1 (stereo not drawn) [Example 735, 2-((1-(4-methoxy-2,6-dimethylphenylsulfonyl)piperidin-2-yl)methoxy)-N-(4-((4-methylpiperazin-1-yl)(phenyl)methyl)cyclohexyl)acetamide] | 103% | 56% | 103%
COc1cc(C)c(S(=O)(=O)N2CCCCC2COCC(=O)NCC2CCC(C(CCc3ccccc3)N3CCCC3)CC2)c(C)c1 (stereo not drawn) [Example 736, 2-((1-(4-methoxy-2,6-dimethylphenylsulfonyl)piperidin-2-yl)methoxy)-N-((4-(3-phenyl-1-(pyrrolidin-1-yl)propyl)cyclohexyl)methyl)acetamide] | 103% | 34% | 102%
O=C(COCC1CCCCN1S(=O)(=O)c1c(Cl)cc(Cl)cc1Cl)NC1CCC(C(CCc2ccccc2)N2CCOCC2)CC1 (stereo not drawn) [Example 737, N-(4-(1-morpholino-3-phenylpropyl)cyclohexyl)-2-((1-(2,4,6-trichlorophenylsulfonyl)piperidin-2-yl)methoxy)acetamide] | 23% | 22% | 56%
O=C(COCC1CCCCN1S(=O)(=O)c1c(Cl)cc(Cl)cc1Cl)NC1CCC(C(CCc2ccccc2)N2CCCCC2)CC1 (stereo not drawn) [Example 738, N-(4-(3-phenyl-1-(piperidin-1-yl)propyl)cyclohexyl)-2-((1-(2,4,6-trichlorophenylsulfonyl)piperidin-2-yl)methoxy)acetamide] | 75% | 77% | 62%
CN1CCN(C(c2ccccc2)C2CCC(NC(=O)COCC3CCCCN3S(=O)(=O)c3c(Cl)cc(Cl)cc3Cl)CC2)CC1 (stereo not drawn) [Example 739, N-(4-((4-methylpiperazin-1-yl)(phenyl)methyl)cyclohexyl)-2-((1-(2,4,6-trichlorophenylsulfonyl)piperidin-2-yl)methoxy)acetamide] | 104% | 62% | 87%
COc1cc(C)c(S(=O)(=O)N2CCCC(COCC(=O)NC3CCC(C(CCc4ccccc4)N4CCCCC4)CC3)C2)c(C)c1 (stereo not drawn) [Example 740, 2-((1-(4-methoxy-2,6-dimethylphenylsulfonyl)piperidin-3-yl)methoxy)-N-(4-(3-phenyl-1-(piperidin-1-yl)propyl)cyclohexyl)acetamide] | 79% | 15% | 70%
O=C(COCC1CCCN(S(=O)(=O)c2c(Cl)cc(Cl)cc2Cl)C1)NC1CCC(C(CCc2ccccc2)N2CCOCC2)CC1 (stereo not drawn) [Example 741, N-(4-(1-morpholino-3-phenylpropyl)cyclohexyl)-2-((1-(2,4,6-trichlorophenylsulfonyl)piperidin-3-yl)methoxy)acetamide] | -5% | 16% | 46%
CN1CCN(C(c2ccccc2)C2CCC(NC(=O)COCC3CCCN(S(=O)(=O)c4c(Cl)cc(Cl)cc4Cl)C3)CC2)CC1 (stereo not drawn) [Example 742, N-(4-((4-methylpiperazin-1-yl)(phenyl)methyl)cyclohexyl)-2-((1-(2,4,6-trichlorophenylsulfonyl)piperidin-3-yl)methoxy)acetamide] | 36% | 29% | 53%
O=C(COC1CCN(S(=O)(=O)c2c(Cl)cc(Cl)cc2Cl)C1)NCC1CCC(C(c2ccccc2)N2CCOCC2)CC1 (stereo not drawn) [Example 743, N-((4-(morpholino(phenyl)methyl)cyclohexyl)methyl)-2-(1-(2,4,6-trichlorophenylsulfonyl)pyrrolidin-3-yloxy)acetamide] | -3% | 8% | 10%
COc1cc(C)c(S(=O)(=O)N2CCCC(COCC(=O)NCC3CCC(C(c4ccccc4)N4CCOCC4)CC3)C2)c(C)c1 (stereo not drawn) [Example 744, 2-((1-(4-methoxy-2,6-dimethylphenylsulfonyl)piperidin-3-yl)methoxy)-N-((4-(morpholino(phenyl)methyl)cyclohexyl)methyl)acetamide] | 18% | 13% | 40%
O=C(COC1CCN(S(=O)(=O)c2c(Cl)cc(Cl)cc2Cl)C1)NCC1CCC(C(CCc2ccccc2)N2CCOCC2)CC1 (stereo not drawn) [Example 745, N-((4-(1-morpholino-3-phenylpropyl)cyclohexyl)methyl)-2-(1-(2,4,6-trichlorophenylsulfonyl)pyrrolidin-3-yloxy)acetamide] | 45% | 8% | 44%
CN(CCOCC(=O)NCC1CCC(C(CCc2ccccc2)N2CCCC2)CC1)S(=O)(=O)c1c(Cl)cc(C(F)(F)F)cc1Cl (stereo not drawn) [Example 746, 2-(2-(2,6-dichloro-N-methyl-4-(trifluoromethyl)phenylsulfonamido)ethoxy)-N-((4-(3-phenyl-1-(pyrrolidin-1-yl)propyl)cyclohexyl)methyl)acetamide] | 98% | 8% | 51%
O=C(COC1CCCN(S(=O)(=O)c2c(Cl)cc(Cl)cc2Cl)C1)NCC1CCC(C(CCc2ccccc2)N2CCOCC2)CC1 (stereo not drawn) [Example 747, N-((4-(1-morpholino-3-phenylpropyl)cyclohexyl)methyl)-2-(1-(2,4,6-trichlorophenylsulfonyl)piperidin-3-yloxy)acetamide] | 24% | 23% | 32%
